In PubChem BioAssay (NCI):
Several values for one entry are separate records, joined by “and”; a condition that tells them apart may be missing. Identical values can stand only once.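 1) Cells in 96-well plates. 2) Compound, 48 h, 5 concentrations. 3) Linear interpolation between surrounding doses. 4) Unreached endpoint = highest concentration. GI50 marks 50% less growth. The concentration for full growth arrest is given as TGI.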

test system: HOP-62 NSCLC; test: growth of human tumour cells (NCI), 48 h

| Structure (SMILES) | GI50 [µM] | TGI [µM] |
| --- | --- | --- |
| CC(SC(C)C(=O)N/N=C/c1cccc(Cl)c1)C(=O)N/N=C\c1cccc(Cl)c1 (configuration not stated) | 13.9 | 31.4 |
| CCOC(=O)/C=C/C(C(=O)/C=C/c1ccc(OC2CCCCO2)c(OC)c1)=C(O)\C=C\c1ccc(OC2CCCCO2)c(OC)c1 (configuration not stated) | 6.09 | 32.5 |
| Cc1ccc(Cl)cc1Nc1nc(C(F)(F)F)ccc1C(=O)N1CCN(c2ccc(F)cc2)CC1 | 14.7 | 29.8 |
| O=C(Nc1ccc(OS(=O)(=O)c2ccccc2)cc1)C12CC3CC(CC(C3)C1)C2 | > 100 | > 100 |
| O=S(=O)([O-])c1ccc2c(c1)-c1nc-2nc2[n-]c(nc3nc(nc4[n-]c(n1)c1ccc(S(=O)(=O)[O-])cc41)-c1cc(S(=O)(=O)[O-])ccc1-3)c1ccc(S(=O)(=O)[O-])cc21.[Cu+2].[Na+] | > 100 | > 100 |
| CCN1CCN(c2ccc(Nc3cc(N(C)C(=O)Nc4c(Cl)c(OC)cc(OC)c4Cl)ncn3)cc2)CC1 | 4.03 | 15.5 |
| CC(C)c1ccc(Nc2ccc3c(OCCCN4CCN(C)CC4)cccc3n2)cc1 | 12 | 26.4 |
| COc1ccc(N(C)c2ncnc3occ(C)c23)cc1 | – | > 100 |
| O=C1NC(=Nc2ccccc2)S/C1=C\c1ccc2ncccc2c1 | 4.46 | > 25 |
| C/C1=C\CC[C@@]2(C)O[C@@H]2[C@H]2OC(=O)[C@@H](CN(C)C)[C@@H]2CC1 | 20.9 | 40.4 |
| C=C(C)[C@@]12OC3(/C=C/C=C/CCCCC)O[C@@H]1[C@@H]1[C@@H]4O[C@]4(CO)[C@@H](O)[C@]4(O)C(=O)C(C)=C[C@H]4[C@@]1(O3)[C@H](C)[C@H]2OC(=O)c1ccccc1 | < 0.01 | 4.84 |
| C/C(=C\CCc1ccoc1)CC/C=C(\C)CCCC1=CC(=O)OC1 | 16 | 55 |
| NC(=NCCCOc1ccc(Cl)cc1)Nc1ccc(C(F)(F)F)cc1 | 2.28 | 6.43 |

test system: MALME-3M melanoma; test: growth of human tumour cells (NCI), 48 h

| Structure (SMILES) | TGI | GI50 |
| --- | --- | --- |
| O=C(CCCn1ccnc1[N+](=O)[O-])NCCn1cncc1[N+](=O)[O-] | > 100 µM | – |
| C[As](C)SC1OC(CO)C(O)C1O (configuration not stated) | 0.65 µM | 0.0847 µM |
| CCCCCCCCCC/C=C/CC(=O)SCCNC(=O)CCNC(=O)[C@@H](O)C(C)(C)COP(=O)(O)OP(=O)(O)OCC1OC(n2cnc3c(N)ncnc32)C(O)C1OP(=O)(O)O (some centres not stated) | > 10 µM | – |
| Cn1c(=O)c2c(nc(Nc3cc(=O)[nH]c(=O)[nH]3)n2Cc2ccccc2)n(C)c1=O | > 100 µM | > 100 µM |
| COc1ccc2c(c1)CCC1C2CC[C@@]2(C)C1CC1=CC(COC(C)=O)C3C(=O)c4ccccc4C(=O)C3C12 (some centres not stated) | > 100 µM | > 100 µM |
| C=C(F)C(=O)N1CCN(c2nc(OC[C@@H]3CCCN3C)nc3c2CCN(c2cccc4cccc(Cl)c24)C3)C[C@@H]1CC#N | 2.98 µM | 1.47 µM |
| Cc1c2cccnc2c(C)c2c1c1cc(CO)ccc1n2C | 7.82 µM | 1.93 µM |
| CC/C(=C(/c1ccc(OCCN(C)C)cc1)c1ccc(OC(=O)CCCCC(=O)c2c(C)[nH]c(/C=C3\N=C(c4ccc[nH]4)C=C3OC)c2C)cc1)c1ccccc1 | 34.4 µM | 9.28 µM |
| CC[C@]12C=CCN3CC[C@@]4(c5ccc(OC)cc5N(C)[C@H]4[C@@](O)(C(=O)OC)[C@@H]1OC(=O)CCC[P+](c1ccccc1)(c1ccccc1)c1ccccc1)[C@@H]32 | 1.37 µM and 1.78 µM | 0.338 µM and 0.493 µM |
| CC(=O)OC1Oc2ccccc2-c2oc(=O)c(-c3cc(=O)oc4cc(O)ccc34)cc21 (configuration not stated) | 59.2 µM | 20.9 µM |
| Ic1ccc(Nc2nc3nonc3nc2Nc2ccc(I)cc2)cc1 | 0.604 µM | 0.167 µM |
| CC(SC(C)C(=O)N/N=C/c1cccc(Cl)c1)C(=O)N/N=C\c1cccc(Cl)c1 (configuration not stated) | 35.7 µM | 13.9 µM |
| CCOC(=O)/C=C/C(C(=O)/C=C/c1ccc(OC2CCCCO2)c(OC)c1)=C(O)\C=C\c1ccc(OC2CCCCO2)c(OC)c1 (configuration not stated) | 5.9 µM | 2.07 µM |
| Cc1ccc(Cl)cc1Nc1nc(C(F)(F)F)ccc1C(=O)N1CCN(c2ccc(F)cc2)CC1 | 23.4 µM | 11.1 µM |
| O=C(Nc1ccc(OS(=O)(=O)c2ccccc2)cc1)C12CC3CC(CC(C3)C1)C2 | > 100 µM | > 100 µM |
| O=S(=O)([O-])c1ccc2c(c1)-c1nc-2nc2[n-]c(nc3nc(nc4[n-]c(n1)c1ccc(S(=O)(=O)[O-])cc41)-c1cc(S(=O)(=O)[O-])ccc1-3)c1ccc(S(=O)(=O)[O-])cc21.[Cu+2].[Na+] | > 100 µM | > 100 µM |
| CCN1CCN(c2ccc(Nc3cc(N(C)C(=O)Nc4c(Cl)c(OC)cc(OC)c4Cl)ncn3)cc2)CC1 | 3.5 µM | 1.82 µM |
| CC(C)c1ccc(Nc2ccc3c(OCCCN4CCN(C)CC4)cccc3n2)cc1 | 16.6 µM | 3.66 µM |
| COc1ccc(N(C)c2ncnc3occ(C)c23)cc1 | > 100 µM | 38.7 µM |
| O=C1NC(=Nc2ccccc2)S/C1=C\c1ccc2ncccc2c1 | > 25 µM | > 18.1 µM |
| C=C(C)[C@@]12OC3(/C=C/C=C/CCCCC)O[C@@H]1[C@@H]1[C@@H]4O[C@]4(CO)[C@@H](O)[C@]4(O)C(=O)C(C)=C[C@H]4[C@@]1(O3)[C@H](C)[C@H]2OC(=O)c1ccccc1 | 26.9 µM | 11.3 µM |
| C/C(=C\CCc1ccoc1)CC/C=C(\C)CCCC1=CC(=O)OC1 | 31.5 µM | 13.7 µM |
| NC(=NCCCOc1ccc(Cl)cc1)Nc1ccc(C(F)(F)F)cc1 | 4.01 µM | 1.93 µM |

test system: KM12 colon; test: growth of human tumour cells (NCI), 48 h

| Structure (SMILES) | TGI | GI50 |
| --- | --- | --- |
| O=C(CCCn1ccnc1[N+](=O)[O-])NCCn1cncc1[N+](=O)[O-] | > 100 µM | – |
| C[As](C)SC1OC(CO)C(O)C1O (configuration not stated) | 13.6 µM | 2.4 µM |
| CCCCCCCCCC/C=C/CC(=O)SCCNC(=O)CCNC(=O)[C@@H](O)C(C)(C)COP(=O)(O)OP(=O)(O)OCC1OC(n2cnc3c(N)ncnc32)C(O)C1OP(=O)(O)O (some centres not stated) | > 10 µM | – |
| Cn1c(=O)c2c(nc(Nc3cc(=O)[nH]c(=O)[nH]3)n2Cc2ccccc2)n(C)c1=O | > 100 µM | > 100 µM |
| COc1ccc2c(c1)CCC1C2CC[C@@]2(C)C1CC1=CC(COC(C)=O)C3C(=O)c4ccccc4C(=O)C3C12 (some centres not stated) | > 100 µM | > 100 µM |
| C=C(F)C(=O)N1CCN(c2nc(OC[C@@H]3CCCN3C)nc3c2CCN(c2cccc4cccc(Cl)c24)C3)C[C@@H]1CC#N | 2.56 µM | 1.2 µM |
| Cc1c2cccnc2c(C)c2c1c1cc(CO)ccc1n2C | 17 µM | 2.33 µM |
| CC/C(=C(/c1ccc(OCCN(C)C)cc1)c1ccc(OC(=O)CCCCC(=O)c2c(C)[nH]c(/C=C3\N=C(c4ccc[nH]4)C=C3OC)c2C)cc1)c1ccccc1 | 14.3 µM | 3.75 µM |
| CC[C@]12C=CCN3CC[C@@]4(c5ccc(OC)cc5N(C)[C@H]4[C@@](O)(C(=O)OC)[C@@H]1OC(=O)CCC[P+](c1ccccc1)(c1ccccc1)c1ccccc1)[C@@H]32 | 1.06 µM and 1.8 µM | 0.274 µM and 0.527 µM |
| CC(=O)OC1Oc2ccccc2-c2oc(=O)c(-c3cc(=O)oc4cc(O)ccc34)cc21 (configuration not stated) | 46.4 µM | 19.8 µM |
| Ic1ccc(Nc2nc3nonc3nc2Nc2ccc(I)cc2)cc1 | > 100 µM | 0.293 µM |
| CC(SC(C)C(=O)N/N=C/c1cccc(Cl)c1)C(=O)N/N=C\c1cccc(Cl)c1 (configuration not stated) | 30.3 µM | 11.4 µM |
| CCOC(=O)/C=C/C(C(=O)/C=C/c1ccc(OC2CCCCO2)c(OC)c1)=C(O)\C=C\c1ccc(OC2CCCCO2)c(OC)c1 (configuration not stated) | 19 µM | 4.75 µM |
| Cc1ccc(Cl)cc1Nc1nc(C(F)(F)F)ccc1C(=O)N1CCN(c2ccc(F)cc2)CC1 | 23.4 µM | 11.3 µM |
| O=C(Nc1ccc(OS(=O)(=O)c2ccccc2)cc1)C12CC3CC(CC(C3)C1)C2 | > 100 µM | 2.1 µM |
| O=S(=O)([O-])c1ccc2c(c1)-c1nc-2nc2[n-]c(nc3nc(nc4[n-]c(n1)c1ccc(S(=O)(=O)[O-])cc41)-c1cc(S(=O)(=O)[O-])ccc1-3)c1ccc(S(=O)(=O)[O-])cc21.[Cu+2].[Na+] | > 76.8 µM | 8.36 µM |
| CCN1CCN(c2ccc(Nc3cc(N(C)C(=O)Nc4c(Cl)c(OC)cc(OC)c4Cl)ncn3)cc2)CC1 | 18.7 µM | 4.47 µM |
| CC(C)c1ccc(Nc2ccc3c(OCCCN4CCN(C)CC4)cccc3n2)cc1 | 25.6 µM | 11.3 µM |
| COc1ccc(N(C)c2ncnc3occ(C)c23)cc1 | – | < 0.01 µM |
| O=C1NC(=Nc2ccccc2)S/C1=C\c1ccc2ncccc2c1 | > 25 µM | 1.62 µM |
| C/C1=C\CC[C@@]2(C)O[C@@H]2[C@H]2OC(=O)[C@@H](CN(C)C)[C@@H]2CC1 | 29.1 µM | 11.8 µM |
| C=C(C)[C@@]12OC3(/C=C/C=C/CCCCC)O[C@@H]1[C@@H]1[C@@H]4O[C@]4(CO)[C@@H](O)[C@]4(O)C(=O)C(C)=C[C@H]4[C@@]1(O3)[C@H](C)[C@H]2OC(=O)c1ccccc1 | 2.99 µM | 1.61 µM |
| C/C(=C\CCc1ccoc1)CC/C=C(\C)CCCC1=CC(=O)OC1 | 23.7 µM | 8.44 µM |
